What follows are compounds tested against Protein cereblon/Tyrosine-protein kinase BTK (Homo sapiens, UniProt Q06187+Q96SW2) (assay: Protac activity at E3 ubiquitin ligase/BTK in human Ramos cells assessed as induction of BTK degradation measured after 16 hrs by ELISA).
Type: cell-based

Protein cereblon/Tyrosine-protein kinase BTK, sequence (Q06187 whole entry): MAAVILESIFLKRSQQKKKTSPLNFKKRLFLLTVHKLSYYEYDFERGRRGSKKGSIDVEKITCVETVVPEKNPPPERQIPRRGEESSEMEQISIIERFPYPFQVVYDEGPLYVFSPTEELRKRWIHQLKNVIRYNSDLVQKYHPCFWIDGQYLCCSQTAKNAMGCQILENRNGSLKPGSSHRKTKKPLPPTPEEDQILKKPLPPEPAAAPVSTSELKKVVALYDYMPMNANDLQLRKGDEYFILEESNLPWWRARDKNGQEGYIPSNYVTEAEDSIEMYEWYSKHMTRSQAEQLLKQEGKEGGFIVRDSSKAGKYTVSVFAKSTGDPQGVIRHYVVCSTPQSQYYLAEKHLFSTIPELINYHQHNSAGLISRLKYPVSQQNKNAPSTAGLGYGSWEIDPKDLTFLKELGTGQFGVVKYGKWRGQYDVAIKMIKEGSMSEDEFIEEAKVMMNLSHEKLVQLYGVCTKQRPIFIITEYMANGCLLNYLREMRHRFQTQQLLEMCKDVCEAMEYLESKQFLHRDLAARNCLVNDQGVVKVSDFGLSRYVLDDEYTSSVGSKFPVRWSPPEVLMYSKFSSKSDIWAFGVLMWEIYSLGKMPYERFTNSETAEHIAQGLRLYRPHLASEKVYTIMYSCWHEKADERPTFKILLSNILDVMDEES
Protein cereblon/Tyrosine-protein kinase BTK, sequence (Q96SW2 whole entry): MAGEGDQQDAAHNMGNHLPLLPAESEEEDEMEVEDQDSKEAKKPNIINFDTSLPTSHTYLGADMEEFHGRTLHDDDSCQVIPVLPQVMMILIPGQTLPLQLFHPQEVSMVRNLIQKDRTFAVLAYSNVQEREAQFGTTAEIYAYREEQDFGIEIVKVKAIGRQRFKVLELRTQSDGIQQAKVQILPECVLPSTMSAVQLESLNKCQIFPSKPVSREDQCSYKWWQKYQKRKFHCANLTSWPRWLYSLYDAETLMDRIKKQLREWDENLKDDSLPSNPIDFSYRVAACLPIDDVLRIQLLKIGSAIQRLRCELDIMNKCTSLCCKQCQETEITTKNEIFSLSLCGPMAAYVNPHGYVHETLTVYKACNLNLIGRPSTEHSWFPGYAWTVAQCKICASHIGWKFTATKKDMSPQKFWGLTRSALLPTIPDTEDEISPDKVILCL

**Q.** Which DC50 does the source give for `NC(=O)c1c(-c2ccc(Oc3ccccc3)cc2)nn2c1NCC[C@H]2C1CCN(C(=O)CCC2CCC(N3CCN(c4ccc5c(c4)C(=O)N(C4CCC(=O)NC4=O)C5=O)CC3)CC2)CC1` (some centres not stated) here?
**A.** 17 nM

**Q.** With `CN(CC1CCN(C(=O)c2ccc(N3CCC(=O)NC3=O)cc2)CC1)C1CC(C(=O)N2CCC([C@@H]3CCNc4c(C(N)=O)c(-c5ccc(Oc6ccccc6)cc5)nn43)CC2)C1` (some centres not stated) as the compound, how does the DC50 read?
**A.** 7.2 nM

**Q.** With `CN(CCC(=O)N1CCC([C@@H]2CCNc3c(C(N)=O)c(-c4ccc(Oc5ccccc5)cc4)nn32)CC1)CC1CCN(c2ccc3c(c2)C(=O)N(C2CCC(=O)NC2=O)C3=O)CC1` (some centres not stated) as the compound, how does the DC50 read?
**A.** 35 nM

**Q.** With `NC(=O)c1c(-c2ccc(Oc3ccccc3)cc2)nn2c1NCC[C@H]2C1CCN(C(=O)CCCN2CCN(C(=O)CNc3ccc4c(c3)C(=O)N(C3CCC(=O)NC3=O)C4=O)CC2)CC1` (some centres not stated) as the compound, how does the DC50 read?
**A.** 35 nM

**Q.** Which DC50 does the source give for `NC(=O)c1c(-c2ccc(Oc3ccccc3)cc2)nn2c1NCC[C@H]2C1CCN(C(=O)CCCc2ccc(NC(=O)CNc3ccc4c(c3)C(=O)N(C3CCC(=O)NC3=O)C4=O)cc2)CC1` (some centres not stated) here?
**A.** 28 nM

**Q.** `NC(=O)c1c(-c2ccc(Oc3ccccc3)cc2)nn2c1NCC[C@H]2C1CCN(C(=O)c2cn(CCOCCOCC(=O)Nc3ccc4c(c3)C(=O)N(C3CCC(=O)NC3=O)C4=O)nn2)CC1` (some centres not stated) was tested. Which DC50 did it give?
**A.** 34 nM

**Q.** `NC(=O)c1c(-c2ccc(Oc3ccccc3)cc2)nn2c1NCC[C@H]2C1CCN(C(=O)c2cn(CCOCCOCCOCCOCCNc3cccc4c3C(=O)N(C3CCC(=O)NC3=O)C4=O)nn2)CC1` (some centres not stated) was tested. Which DC50 did it give?
**A.** 68 nM

**Q.** With `NC(=O)c1c(-c2ccc(Oc3ccccc3)cc2)nn2c1NCC[C@H]2C1CCN(C(=O)c2cn(CCOCCOCCOCCOCCOCCOCCNc3cccc4c3C(=O)N(C3CCC(=O)NC3=O)C4=O)nn2)CC1` (some centres not stated) as the compound, how does the DC50 read?
**A.** 107 nM

**Q.** How did the DC50 turn out when `NC(=O)c1c(-c2ccc(Oc3ccccc3)cc2)nn2c1NCC[C@H]2C1CCN(C(=O)c2cn(CCOCCOCCOCCOCCOCCNc3ccc4c(c3)C(=O)N(C3CCC(=O)NC3=O)C4=O)nn2)CC1` (some centres not stated) was run?
**A.** 78 nM

**Q.** How did the DC50 turn out when `NC(=O)c1c(-c2ccc(Oc3ccccc3)cc2)nn2c1NCC[C@H]2C1CCN(C(=O)c2cn(CCOCCOCCOCCOCCOCCNc3cccc4c3C(=O)N(C3CCC(=O)NC3=O)C4=O)nn2)CC1` (some centres not stated) was run?
**A.** 78 nM

**Q.** Which DC50 does the source give for `NC(=O)c1c(-c2ccc(Oc3ccccc3)cc2)nn2c1NCC[C@H]2C1CCN(C(=O)CCN2CCN(C(=O)CNc3ccc4c(c3)C(=O)N(C3CCC(=O)NC3=O)C4=O)CC2)CC1` (some centres not stated) here?
**A.** 2.9 nM

**Q.** `NC(=O)c1c(-c2ccc(Oc3ccccc3)cc2)nn2c1NCC[C@H]2C1CCN(C(=O)CCc2ccc(N3CCN(c4ccc5c(c4)C(=O)N(C4CCC(=O)NC4=O)C5=O)CC3)cc2)CC1` (some centres not stated) was tested. Which DC50 did it give?
**A.** 74 nM

Reference: ChEMBL document CHEMBL4706737, “PROTAC-Mediated Degradation of Bruton's Tyrosine Kinase as a Therapeutic Strategy for Cancer” (ACS Med Chem Lett, 2021)
